Here are results for 5 compounds from patent US20190111026A1, “ANTI-TRITRICHOMONAS AGENT” (Pola Pharma Inc., priority 2016, published 2019).

Data set [1] relates to Tritrichomonas mobilensis. The data set is described as follows: Anti-Tritrichomonas activity of solid ground luliconazole (viable count, growth inhibition rate). The data set is classed as cell-based. Particulars: 35° C., 24 hours; for Viable Cell Count Ave.: 5 mg solid in 5 mL Diamond's medium with 10% adult bovine serum, 10,000 cells inoculated; for Growth Inhibition Rate: 5 mg solid in 5 mL medium, 10,000 cells, [(control-sample)/control]×100. As to the method: It is noted that the growth inhibition rate is calculated as follows: [(the number of viable cells of the control group−the number of viable cells of the sample group)/the number of viable cells of the control group]×100. It is preferred that the anti-Tritrichomonas effect is determined 24 to 72 hours after the inoculation of 10,000 cells of Tritrichomonas protozoa on 5 mL of liquid medium in which 5 mg of sample luliconazole is added. As the liquid medium, it is preferred to use Diamond's medium with 5% to 15% adult bovine serum added as desired.
(§1) Luliconazole was ground with a mortar to change the particle size, and the anti-Tritrichomonas activity of solid luliconazole was studied. More specifically, luliconazole having a variety of particle sizes was added in an amount of 5 mg to 5 mL of Diamond's media supplemented with 10% adult bovine serum, and 10,000 cells of Tritrichomonas mobilensis were inoculated on the media, cultured at 35° C. for 24 hours, and then measured for the number of viable T. mobilensis cells by use of a Neubauer hemocytometer. Luliconazole was not added to the control group. The growth inhibition rate was calculated as follows: [(the number of viable cells of the control group−the number of viable cells of the sample group)/the number of viable cells of the control group]×100. […] It is noted that the particle size was measured by a laser diffraction method (Microtrac MT3000, manufactured by NIKKISO CO., LTD; dispersion medium: water).

Data set [2] in a line: Particle size by laser diffraction method (Microtrac MT3000). To be noted: dispersion medium: water. The data set is classed as physicochemical. As to the method:
as §1

Data set [3] has as its system Tritrichomonas mobilensis. The data set is described as follows: Anti-Tritrichomonas effect of supernatant from medium stored with ground luliconazole. The data set is classed as cell-based. To be noted: supernatant of medium stored with 5 mg ground luliconazole at 35° C. for 24 hours. As to the method:
In order to confirm the influence of luliconazole which was eluted in the solutions in Example 2, 7 minute-ground luliconazole was added in an amount of 5 mg to Diamond's medium with 10% adult bovine serum added, and stored at 35° C. for 24 hours, and the supernatant was obtained from the Diamond's medium. Tritrichomonas mobilensis was inoculated on the supernatant, cultured at 35° C. for 24 hours and measured for the number of viable cells by use of a Neubauer hemocytometer. Luliconazole was not added to the control group. The result from the control group was 973,333±23,094 while the result from the supernatant was 1,000,000±144,222. […] In this regard as well, it is clear that luliconazole can control effectively Tritrichomonas protozoa in the intestinal tract.

For data set [4] the following is noted: from Lulicon Cream Pharmaceutical Product Interview Form 2006; cited from earlier work.
For data set [5], the system named is Tritrichomonas mobilensis (T. mobilensis: USA: M776 c12). The data set is described as follows: Activity of luliconazole in solution against Tritrichomonas mobilensis (viable count, Neubauer hemocytometer). The data set is classed as cell-based. Particulars: luliconazole dissolved in methanol, Diamond's medium with 10% adult bovine serum, 35° C., 24 hours. On the procedure: The activity of luliconazole against Tritrichomonas mobilensis of the genus Tritrichomonas (T. mobilensis: USA: M776 c12) was studied. Luliconazole as synthesized according to the method disclosed in the above JP 60-218387 A was used as a sample. More specifically, Tritrichomonas protozoa were cultured on Diamond's medium with 10% adult bovine serum added. Luliconazole was dissolved in 100 μL of methanol to obtain solutions having a variety concentrations of luliconazole. The cultures were then inoculated on 5 mL of 10% adult bovine serum-added Diamond's media in which the solutions were added, cultured at 35° C. for 24 hours, and then measured for the number of viable Tritrichomonas protozoa by use of a Neubauer hemocytometer. MIC and IC50 were obtained from the number of viable protozoa. MIC was 50 μg/mL and IC50 was 10. 1 μg/mL.

Converted amounts (≈) assume the structure as drawn.

On to `N#C/C(=C1/SC[C@@H](c2ccc(Cl)cc2Cl)S1)n1ccnc1` [5-minute ground luliconazole, luliconazole], for which, in data set [1], the “Viable Cell Count Ave.” value is recorded as 43,333 and the “Growth Inhibition Rate” value worked out at 75.5. In data set [2], this compound yielded a D50 of 114.4 μm.

Take `N#C/C(=C1/SC[C@@H](c2ccc(Cl)cc2Cl)S1)n1ccnc1` [6-minute ground luliconazole, luliconazole]: in data set [1], the “Viable Cell Count Ave.” value is 20,000 and the “Growth Inhibition Rate” value was 88.7. Besides, the D50 in data set [2] was 96.6 μm.

`N#C/C(=C1/SC[C@@H](c2ccc(Cl)cc2Cl)S1)n1ccnc1` [7-minute ground luliconazole, luliconazole]: in data set [1], the “Viable Cell Count Ave.” value was 20,000 and the “Growth Inhibition Rate” value is recorded as 88.7. Besides, the D50 in data set [2] is reported as 84.7 μm. The “anti-Tritrichomonas effect of supernatant” value in data set [3] was “did not have anti-Tritrichomonas effect”. The “number of viable cells” value in data set [3] (culture 35° C., 24 hours, control 973,333±23,094) is on record as 1,000,000±144,222.

For `N#C/C(=C1/SC[C@@H](c2ccc(Cl)cc2Cl)S1)n1ccnc1` [8-minute ground luliconazole, luliconazole], in data set [1], the “Viable Cell Count Ave.” value is recorded as 26,667 and the “Growth Inhibition Rate” value was found to be 84.9. In data set [2], this compound had a D50 of 78.5 μm.

As to `N#C/C(=C1/SC[C@@H](c2ccc(Cl)cc2Cl)S1)n1ccnc1` [Luliconazole, luliconazole], in data set [4], the solubility in water entry was “insoluble in water”. In data set [5], this compound came in with an IC50 of 10.1 µg/mL (≈ 28.5 µM) and an MIC of 50 µg/mL (≈ 141 µM).
